Results: patent US4082735A, “Novel immunological adjuvant compounds and methods of preparation thereof” (Syntex (U.S.A.) Inc., priority 1976, dated 1978)

Experiments:
guinea pigs [1] = test: Antibody titre (antibovine serum albumin or antiovalbumin antibodies) by passive hemagglutination or Farr radioimmune assay; format: in vivo; conditions: relative to FIA = 1; dose 50 μg per guinea pig, subcutaneous in FIA emulsion; sera day 42
Procedure: (§1) The antigen mixture used consists of 20 μg. of arsanilic tyrosine and 100 μg. of protein [either bovine serum albumin (BSA) or ovalbumin]. The antigen mixture and the compounds to be tested, at the dose levels per guinea pig shown in the Table below, are dissolved in saline and emulsified with an equal volume of Freund's Incomplete Adjuvant (FIA). Groups of ten guinea pigs are used for each test compound and each guinea pig is injected with 0.1 ml. of the above emulsion, subcutaneously, in the nuchal region. Control groups are given the antigen mixture alone emulsified with FIA.
On day 42 all animals are bled by cardiac puncture and the sera assayed for antibovine serum albumin or antiovalbumin antibodies by the passive hemagglutination technique or by radiommune assay using the Farr techbique (P. Minden and R.S. Farr in "Handbook of Experimental Immunology", edited by D.M. Weir, Chapter 15, Volume 1, Blackwell Scientific Publications, Oxford) using 125 iodine labeled bovine serum albumin. Average potencies of these assays are presented in Column 2 of the Table below relative to FIA having the value of one.

guinea pigs [2] = test: Delayed hypersensitivity to arsanilic tyrosine, skin test after immunisation with antigen mixture plus test compound in FIA; format: in vivo; conditions: relative to FIA = 1; dose 50 μg per guinea pig, subcutaneous in FIA emulsion; skin test day 14, read at 24 hours
Procedure: as §1
After 14 days, all animals are skin tested using 25 μg arsanilic tyrosine conjugated to either BSA or ovalbumin (BSA is used in this test when ovalbumin is present in the antigen mixture and vice versa) which is given in 0.1 ml saline intradermally in the flanks of the animals. […] Thus, the procedure is as follows: skin tests with a high degree of infiltration are scored as ++ and assigned the number 3; those with a lesser degree are scored as + and given the number 2, whereas skin reactions with no infiltration are scored as zero and assigned the number 1. […]

cats = test: Side effects in cats after inoculation; format: in vivo, cat; conditions: 1500 μg per kilogram
Excerpt: B. Seven cats were divided into groups and inoculated with the amounts of compounds (per kilogram of body weight) as shown in the following Table: […]

dogs = test: Side effects in dogs after inoculation; format: in vivo, dog; conditions: 4 dogs
Excerpt: A. 48 Dogs were divided into groups and inoculated with the amounts of compound (per kilogram of body weight) as shown in the following Table: […]

Compound	Average Potency, Antibody Titre (guinea pigs [1])	Average Potency, Delayed Hypersensitivity to Arsanilic Tyrosine (guinea pigs [2])	condition at 24 hours post-inoculation (cats; 3 cats)	food intake (cats; 3 cats)	general condition following inoculation (cats; 3 cats)	diarrhea (cats; 3 cats, 2-5 hours post-inoculation)	vomiting, number of times (cats; 3 cats, over a period of 2-5 hours post-inoculation)	rectal temperature, peak (cats; seven hours post-inoculation) [° F]	dogs showing severe depression, excessive salivation and vomiting (dogs; 240 μg per kilogram of body weight)	dogs showing severe depression, excessive salivation and vomiting (dogs; 600 μg per kilogram of body weight)	dogs showing severe depression, excessive salivation and vomiting (dogs; 1500 μg per kilogram of body weight)
CC(=O)N[C@H]1C(O)O[C@H](CO)[C@@H](O)[C@@H]1OC(C)C(=O)N[C@H](C)C(=O)N[C@H](CCC(=O)O)C(N)=O (stereo partly drawn) [2-(2-acetamido-2-deoxy-D-glucos-3-0-yl)-D-propionyl-L-alanyl-D-isoglutamine]	3.7	3.3	all animals had returned to normal	Food was refused	became depressed and unkempt	All animals had diarrhea	4-6 times	104	two of the dogs	All of the dogs	All of the dogs
2-acetamido-2-deoxy-D-glucos-3-O-yl-acetyl-L-prolyl-D-isoglutamine	8.0	5.4									
